Assays:
[1] = system: reserpine-induced hypothermia; experiment: Reserpine-induced hypothermia in the rat; format: in vivo, male rats CF1; conditions: reserpine 5 mg/kg i.p., mean to 6th hour vs controls
Protocol: (§1) The thymoanaleptic properties of the compounds of the invention were determined by means of reserpine-induced ptosis and hypothermia in the rat.
An intraperitoneal dose of 5 mg/kg of reserpine was administered to batches of 5 male rats CF1 weighing an average of 300 g. Thirty minutes later, the rectal temperature was determined and then a dose of the compound to be tested was given by oral route, except to the control animals. The rectal temperature of all the animals including the controls was taken every hour up to the 6th hour.
The difference between these two averages enabled an estimation to be made regarding the antagonistic effect of the compounds of the invention on the hypothermia induced by reserpine.

reserpine-induced ptosis = experiment: Reserpine-induced ptosis in the rat; format: in vivo, male rats of the CF1 strain; conditions: reserpine 5 mg/kg i.p., score scale 0-4, mean to 6th hour vs controls
Protocol: as §1
An intraperitoneal dose of 5 mg/kg of reserpine was administered to batches of 5 male rats of the CF1 strain weighing an average of 300 g.
Thirty minutes later a dose of the compound to be studied was given by oral route and the inhibitory effect of the reserpine was noted every hour up to the sixth hour. Ptosis was evaluated for each eye in accordance with the following scale:
4 : eyelids completely closed.
The difference between these two averages represents the average decrease of the ptosis in the treated animals as compared to the controls.

toxicity of yohimbine = experiment: Potentiation of the toxicity of yohimbine (test of QUINTON); format: in vivo, male mice; conditions: Mus musculus; 50 mg/kg oral; yohimbine hydrochloride 25 mg/kg i.p.; mortality after 24 hours
Protocol: Yohimbine is a substance which provokes an increase in the serotonine level in the brain or a decrease in norepinephrine according to the author.
For this purpose, the test of QUINTON was used which is described in Brit. J. Pharmacol. 21, 51 (1963). […] […] The percentage of mortality was noted after 24 hours.
Table III hereunder expresses the percentage of potentiation of the toxicity due to yohimbine in comparison with the controls.
The percentage in question was determined 24 hours after the administration of yohimbine.

[2] = system: stereotypies induced by amphetamine; experiment: Potentiation of the stereotypies induced by amphetamine; format: in vivo, rats
Protocol: It is commonly admitted that amphetamine induces stereotypies by stimulating the dopaminergic receptors and inhibiting the re-uptake of dopamine into the neuron.
The thymoanaleptics potentiate these stereotypies.
Thirty minutes later, a dose of 10 mg/kg of the compound to be tested was given by oral route. Note was taken of the intensity of the stereotypies every 30 minutes for 150 minutes in accordance with the following scale which indicates the behaviour of the animal.
0 : the rat is motionless and asleep
1 : the rat is motionless and awake
3 : the rat stands on its hind paws and sniffs the lid of its cage in a stereotyped manner.
4 : the rat licks the walls of its cage in a stereotyped manner
5 : the rat bites the bars of its cage or sniffs the shavings of its litter in a stereotyped manner
6 : the rat chews the shavings in a stereotyped manner
The average of the 5 results obtained for each batch was calculated and compared with the average obtained with the control animals.
The difference between these averages represents the mean increase of the steroetypies of the treated animals in comparison with the controls.

[3] = system: cholinergic effects provoked by tremorine; experiment: Cholinolytic properties: action with respect to tremorine; format: in vivo, male mice of the OF1 strain; conditions: 25 mg/kg oral; tremorine 10 mg/kg; difference vs controls
Protocol: When injected into mice, tremorine and its metabolite, oxotremorine, produce central cholinergic effects, i.e. normal and provoked tremor as well as peripheral cholinergic effects i.e. weeping, sweating diarrhoea and salivation.
Male mice of the OF1 strain weighing 22 g, were divided into batches of 10. Each batch with the exception of the control animals, received, by oral route, a dose of the compound to be tested.
Thirty minutes later, 10 mg/kg of tremorine were administered to all the batches and thirty minutes after the injection of tremorine note was taken of the cholinergic effects on each animal in accordance with the following scale: […]

[4] = 10 mg/kg oral, amphetamine 10 mg/kg i.p., every 30 min for 150 min

Compound	Average inhibition of hypothermia (positive °C) ([1]; 10 mg/kg oral)	mortality at 50 mg/kg (toxicity of yohimbine)	Average decrease of Ptosis (reserpine-induced ptosis; 10 mg/kg oral)	Average increase of the stereotypies [2, 4]	other results
CC(Oc1ccc2ccoc2c1)C(N)=NO (centres unmarked) [Compound 28, 2-(6-Benzofuryloxy)-propionamidoxime]	–	–	–	–	Average inhibition of hypothermia (positive °C) ([1]; 100 mg/kg oral): 1.1 °C; Average decrease of Ptosis (reserpine-induced ptosis; 100 mg/kg oral): 2.4
CCC(Oc1c(C)oc2ccccc12)C(N)=NO (centres unmarked) [Compound 39, 2-(2-Methyl-3-benzofuryloxy)-butyramidoxime]	0.3 °C	40%	–	–	–
CC(C)(Oc1cccc2c1OCCO2)C(N)=NO [Compound 38, 2-[(1,4-Benzodioxanyl)-5-oxyl]-2-methyl-propionamidoxime]	0.5 °C	10%	–	–	–
CCC(Oc1cccc2ccoc12)C(N)=NO (centres unmarked) [Compound 42, 2-(7-Benzofuryloxy)-butyramidoxime]	–	60%	–	–	–
CCc1oc2ccccc2c1OCC(N)=NO [Compound 27, 2-(2-Ethyl-3-benzofuryloxy)-acetamidoxime]	–	20%	–	–	Average decrease of Ptosis (reserpine-induced ptosis; 20 mg/kg oral): 0.3
CCc1oc2ccccc2c1OC(CC)C(N)=NO (centres unmarked) [Compound 10, 2-(2-Ethyl-3-benzofuryloxy)-butyramidoxime]	–	10%	0.8	5.6	–
CCC(Oc1ccc2ccoc2c1)C(N)=NO (centres unmarked) [Compound 31, 2-(6-Benzofuryloxy)-butyramidoxime]	–	–	–	–	Average decrease of Ptosis (reserpine-induced ptosis; 100 mg/kg oral): 2.3
CCC(Oc1c(C(C)C)oc2ccccc12)C(N)=NO (centres unmarked) [Compound 20, 2(2-Isopropyl-3-benzofuryloxy)-butyramidoxime]	0.8 °C	–	0.3	–	–
Cc1oc2ccccc2c1OCCC(N)=NO [Compound 19, 3-(2-Methyl-3-benzofuryloxy)-propionamidoxime]	–	10%	0.3	–	–
CC(C)(Oc1cccc2ccccc12)C(N)=NO [Compound 11, 2-(1-Naphtyloxy)-2-methyl-propionamidoxime]	–	–	0.7	–	Average inhibition of hypothermia (positive °C) ([1]; 20 mg/kg oral): 0.5 °C
CC(C)c1oc2ccccc2c1OCC(N)=NO [Compound 36, 2-(2-Isopropyl-3-benzofuryloxy)-acetamidoxime]	0.7 °C	–	–	1.8	–
NC(COc1ccc2ccoc2c1)=NO [Compound 25, 2-(6-Benzofuryloxy)-acetamidoxime]	–	30%	0.2	4.4	–
CC(C)c1oc2ccccc2c1OC(C)(C)C(N)=NO [Compound 35, 2-(2-Isopropyl-3-benzofuryloxy)-2-methyl-propionamidoxime]	0.7 °C	–	–	3	–
CCc1oc2ccccc2c1OC(C)C(N)=NO (centres unmarked) [Compound 17, 2-(2-Ethyl-3-benzofuryloxy)-propionamidoxime]	–	20%	0.4	1.2	Central response tremor: Normal [3]: -0.8; Central response tremor: Provoked [3]: 0; Peripheral cholinergic response: Salivat. [3]: 0; Peripheral cholinergic response: Sweating [3]: 0; Peripheral cholinergic response: Weeping [3]: 0
CC(Oc1c(C(C)C)oc2ccccc12)C(N)=NO (centres unmarked) [Compound 24, 2-(2-Isopropyl-3-benzofuryloxy)-propionamidoxime]	0.8 °C	30%	0.2	3.8	–
CCC(Oc1ccc2ccccc2c1)C(N)=NO (centres unmarked) [Compound 37, 2-(2-Naphthyloxy)-butyramidoxime]	0.5 °C	–	–	1.8	–
CCC(Oc1cccc2c(C)c(C)oc12)C(N)=NO (centres unmarked) [Compound 41, 2-(2,3-Dimethyl-7-benzofuryloxy)-butyramidoxime]	–	–	–	–	Average inhibition of hypothermia (positive °C) ([1]; 100 mg/kg oral): 1.1 °C
Cc1oc2cc(OCC(N)=NO)ccc2c1C [Compound 21, 2-(2,3-Dimethyl-6-benzofuryloxy)-acetamidoxime]	–	40%	0.3	4.2	–
Cc1oc2c(OC(C)C(N)=NO)cccc2c1C (centres unmarked) [Compound 44, 2-(2,3-Dimethyl-7-benzofuryloxy)-propionamidoxime]	–	40%	–	–	–
Cc1oc2ccc(OCC(N)=NO)cc2c1C [Compound 15, 2-(2,3-Dimethyl-5-benzofuryloxy)-acetamidoxime]	–	10%	0.5	1	–
CC(Oc1cccc2c1OCCO2)C(N)=NO (centres unmarked) [Compound 45, 2-[(1,4-Benzodioxanyl)-5-oxy]-propionamidoxime]	–	10%	–	3	–
Cc1oc2ccc(OCCC(N)=NO)cc2c1C [Compound 23, 3-(2,3-Dimethyl-5-benzofuryloxy)-propionamidoxime]	0.3 °C	–	0.2	–	–
CC(Oc1ccc2occc2c1)C(N)=NO (centres unmarked) [Compound 29, 2-(5-Benzofuryloxy)-propionamidoxime]	–	–	–	–	Average inhibition of hypothermia (positive °C) ([1]; 100 mg/kg oral): 0.8 °C; Average decrease of Ptosis (reserpine-induced ptosis; 100 mg/kg oral): 2.4; Average increase of the stereotypies ([2]; 20 mg/kg, same conditions (amphetamine 10 mg/kg i.p.)): 5
CCc1oc2ccccc2c1OCCC(N)=NO [Compound 13, 3-(2-Ethyl-3-benzofuryloxy)-propionamidoxime]	–	–	0.7	2.4	Central response tremor: Normal [3]: 0; Central response tremor: Provoked [3]: 0; Peripheral cholinergic response: Salivat. [3]: 0; Peripheral cholinergic response: Sweating [3]: 0; Peripheral cholinergic response: Weeping [3]: 0
CC(C)(Oc1ccc2ccccc2c1)C(N)=NO [Compound 40, 2-(2-Naphthyloxy)-2-methyl-propionamidoxime]	0.2 °C	–	–	–	–
Cc1oc2ccccc2c1OC(C)C(N)=NO (centres unmarked) [Compound 16, 2-(2-Methyl-3-benzofuryloxy)-propionamidoxime]	–	–	0.5	–	–
NC(COc1cccc2ccoc12)=NO [Compound 7, 2-(7-Benzofuryloxy)-acetamidoxime]	0.6 °C	60%	1.4	4.8	–
CCC(Oc1cccc2occc12)C(N)=NO (centres unmarked) [Compound 43, 2-(4-Benzofuryloxy)-butyramidoxime]	–	60%	–	5.5	–
Cc1cc2cc(OCCC(N)=NO)ccc2o1 [Compound 32, 3-(2-Methyl-5-benzofuryloxy)-propionamidoxime]	–	–	–	–	Average decrease of Ptosis (reserpine-induced ptosis; 100 mg/kg oral): 2.3

— patent publication US3984470A, “Amidoxime derivatives and process for preparing the same” (priority 1974, dated 1976)
